The record followed here is patent US20160271263A1 (Novo Nordisk A/S, priority 2010, published 2016).

pEC50: −log10 of the molar value. Numbered stars: 1 amine (or outer) side, 2 acyl side, 3 side chain; on linkers, the order of the positions; unused ones are H or OH. Square brackets hold non-standard residues; d marks the D form. Side chains are listed from the residue outwards. Peptide text beside a SMILES is read from it. * marks the point of attachment. C18 diacid = O=C(O)CCCCCCCCCCCCCCCCC(=O)*; γGlu = O=C(O)[C@H](CCC(=O)[*:2])N[*:1]; AEEA = NCCOCCOCC(=O)O; Aib = CC(C)(N)C(=O)O

Sequence of glucagon receptor (P47871 26-477): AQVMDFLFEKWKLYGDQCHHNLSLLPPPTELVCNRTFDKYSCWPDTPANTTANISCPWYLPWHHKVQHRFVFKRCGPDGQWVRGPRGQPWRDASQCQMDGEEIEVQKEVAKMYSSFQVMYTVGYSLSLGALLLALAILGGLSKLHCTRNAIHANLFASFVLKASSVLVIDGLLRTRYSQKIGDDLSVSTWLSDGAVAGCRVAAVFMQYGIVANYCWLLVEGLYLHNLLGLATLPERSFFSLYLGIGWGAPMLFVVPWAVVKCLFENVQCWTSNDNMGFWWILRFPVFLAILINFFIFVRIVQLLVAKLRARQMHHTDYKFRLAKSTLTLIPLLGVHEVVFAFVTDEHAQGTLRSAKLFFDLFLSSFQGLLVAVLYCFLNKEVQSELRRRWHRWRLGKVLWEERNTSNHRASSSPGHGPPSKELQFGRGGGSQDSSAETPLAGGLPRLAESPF

The test concerns the target glucagon receptor (Homo sapiens, UniProt P47871). The test can be described thus: cell-based.
`CC(C)C[C@H](NC(=O)[C@H](Cc1ccc(O)cc1)NC(=O)[C@H](CCCCN)NC(=O)[C@H](CO)NC(=O)[C@H](Cc1ccc(O)cc1)NC(=O)[C@H](CC(=O)O)NC(=O)[C@H](CO)NC(=O)[C@@H](NC(=O)[C@H](Cc1ccccc1)NC(=O)[C@@H](NC(=O)CNC(=O)[C@H](CCC(N)=O)NC(=O)C(C)(C)NC(=O)[C@@H](N)Cc1c[nH]cn1)[C@@H](C)O)[C@@H](C)O)C(=O)N[C@@H](CC(=O)O)C(=O)N[C@@H](CCCCNC(=O)COCCOCCNC(=O)COCCOCCNC(=O)CC[C@H](NC(=O)CCCCCCCCCCCCCCCCC(=O)O)C(=O)O)C(=O)N[C@@H](CCCCN)C(=O)N[C@@H](CCCNC(=N)N)C(=O)N[C@@H](C)C(=O)N[C@@H](CCC(N)=O)C(=O)N[C@@H](CCC(=O)O)C(=O)N[C@@H](Cc1ccccc1)C(=O)N[C@H](C(=O)N[C@@H](CCC(N)=O)C(=O)N[C@@H](Cc1c[nH]c2ccccc12)C(=O)N[C@@H](CC(C)C)C(=O)N[C@@H](CC(C)C)C(=O)N[C@@H](CC(N)=O)C(=O)N[C@H](C(N)=O)[C@@H](C)O)C(C)C` [Example 39, N^ε16-([2-[2-[2-[[2-[2-[2-[[(4S)-5-hydroxy-4-[(18-hydroxy-18-oxooctadecanoyl)amino]-5-oxopentanoyl]amino]ethoxy]ethoxy]acetyl]amino]ethoxy]ethoxy]acetyl]) [Aib^2, Lys^16, Lys^17, Glu^21,Leu^27] Glucagon peptide amide] (H-H[Aib]QGTFTSDYSKYLDK([AEEA-AEEA-γGlu-C18 diacid])KRAQEFVQWLLNT-NH2; N-terminus assumed) had a pEC50 of 11.15.
The same measure for `CC(C)C[C@H](NC(=O)[C@H](Cc1ccc(O)cc1)NC(=O)[C@H](CCCCN)NC(=O)[C@H](CO)NC(=O)[C@H](Cc1ccc(O)cc1)NC(=O)[C@H](CC(=O)O)NC(=O)[C@H](CO)NC(=O)[C@@H](NC(=O)[C@H](Cc1ccccc1)NC(=O)[C@@H](NC(=O)CNC(=O)[C@H](CCC(N)=O)NC(=O)[C@H](CO)NC(=O)[C@@H](N)Cc1c[nH]cn1)[C@@H](C)O)[C@@H](C)O)C(=O)N[C@@H](CC(=O)O)C(=O)N[C@@H](CO)C(=O)N[C@@H](CCCCN)C(=O)N[C@@H](CCCNC(=N)N)C(=O)N[C@@H](C)C(=O)N[C@@H](CCC(N)=O)C(=O)N[C@@H](CCC(=O)O)C(=O)N[C@@H](Cc1ccccc1)C(=O)N[C@H](C(=O)N[C@@H](CCCCNC(=O)COCCOCCNC(=O)COCCOCCNC(=O)CC[C@H](NC(=O)CCCCCCCCCCCCCCCCC(=O)O)C(=O)O)C(=O)N[C@@H](Cc1c[nH]c2ccccc12)C(=O)N[C@@H](CC(C)C)C(=O)N[C@@H](CC(C)C)C(=O)N[C@@H](CO)C(=O)N[C@H](C(N)=O)[C@@H](C)O)C(C)C` [Example 40, N^ε24-([2-[2-[2-[[2-[2-[2-[[(4S)-5-hydroxy-4-[(18-hydroxy-18-oxooctadecanoyl)amino]-5-oxopentanoyl]amino]ethoxy]ethoxy]acetyl]amino]ethoxy]ethoxy]acetyl]) [Lys^17, Glu^21,Lys^24,Leu^27,Ser^28]Glucagon peptide amide] (H-HSQGTFTSDYSKYLDSKRAQEFVK([AEEA-AEEA-γGlu-C18 diacid])WLLST-NH2; N-terminus assumed): 11.15; for `CC(C)C[C@H](NC(=O)[C@H](Cc1ccc(O)cc1)NC(=O)[C@H](CCCCN)NC(=O)[C@H](CO)NC(=O)[C@H](Cc1ccc(O)cc1)NC(=O)[C@H](CC(=O)O)NC(=O)[C@H](CO)NC(=O)[C@@H](NC(=O)[C@H](Cc1ccccc1)NC(=O)[C@@H](NC(=O)CNC(=O)[C@H](CCC(N)=O)NC(=O)[C@H](CO)NC(=O)[C@@H](N)Cc1c[nH]cn1)[C@@H](C)O)[C@@H](C)O)C(=O)N[C@@H](CC(=O)O)C(=O)N[C@@H](CO)C(=O)N[C@@H](CCCCN)C(=O)N[C@@H](CCCNC(=N)N)C(=O)N[C@@H](C)C(=O)N[C@@H](CCC(N)=O)C(=O)N[C@@H](CCC(=O)O)C(=O)N[C@@H](Cc1ccccc1)C(=O)N[C@H](C(=O)N[C@@H](CCCCNC(=O)COCCOCCNC(=O)COCCOCCNC(=O)CC[C@H](NC(=O)CCCCCCCCCCCCCCCCC(=O)O)C(=O)O)C(=O)N[C@@H](Cc1c[nH]c2ccccc12)C(=O)N[C@@H](CC(C)C)C(=O)N[C@@H](CC(C)C)C(=O)N[C@@H](CCC(=O)O)C(=O)N[C@H](C(N)=O)[C@@H](C)O)C(C)C` [Example 41, N^ε24-([2-[2-[2-[[2-[2-[2-[[(4S)-5-hydroxy-4-[(18-hydroxy-18-oxooctadecanoyl)amino]-5-oxopentanoyl]amino]ethoxy]ethoxy]acetyl]amino]ethoxy]ethoxy]acetyl])[Lys^17, Glu^21,Lys^24,Leu^27,Glu^28,]Glucagon peptide amide] (H-HSQGTFTSDYSKYLDSKRAQEFVK([AEEA-AEEA-γGlu-C18 diacid])WLLET-NH2; N-terminus assumed): 11.52.
The same measure for `CC(C)C[C@H](NC(=O)[C@H](Cc1ccc(O)cc1)NC(=O)[C@H](CCCCN)NC(=O)[C@H](CO)NC(=O)[C@H](Cc1ccc(O)cc1)NC(=O)[C@H](CC(=O)O)NC(=O)[C@H](CO)NC(=O)[C@@H](NC(=O)[C@H](Cc1ccccc1)NC(=O)[C@@H](NC(=O)CNC(=O)[C@H](CCC(N)=O)NC(=O)[C@H](CO)NC(=O)[C@@H](N)Cc1c[nH]cn1)[C@@H](C)O)[C@@H](C)O)C(=O)N[C@@H](CC(=O)O)C(=O)N[C@@H](CO)C(=O)N[C@@H](CCCCN)C(=O)N[C@@H](CCCNC(=N)N)C(=O)N[C@@H](C)C(=O)N[C@@H](CCC(N)=O)C(=O)N[C@@H](CCC(=O)O)C(=O)N[C@@H](Cc1ccccc1)C(=O)N[C@H](C(=O)N[C@@H](CCC(N)=O)C(=O)N[C@@H](Cc1c[nH]c2ccccc12)C(=O)N[C@@H](CC(C)C)C(=O)N[C@@H](CC(C)C)C(=O)N[C@@H](CC(N)=O)C(=O)N[C@H](C(=O)N[C@@H](CCCCNC(=O)COCCOCCNC(=O)COCCOCCNC(=O)CC[C@H](NC(=O)CCCCCCCCCCCCCCCCC(=O)O)C(=O)O)C(N)=O)[C@@H](C)O)C(C)C` [Example 42, N^α-([Lys^17, Glu^21, Leu^27] Glucagonyl) N^ε-([2-[2-[2-[[2-[2-[2-[[(4S)-5-hydroxy-4-[(18-hydroxy-18-oxooctadecanoyl)amino]-5-oxopentanoyl]amino]ethoxy]ethoxy]acetyl]amino]ethoxy]ethoxy]acetyl]) Lysinyl amide] (H-HSQGTFTSDYSKYLDSKRAQEFVQWLLNTK([AEEA-AEEA-γGlu-C18 diacid])-NH2; N-terminus assumed): 10.77; for `CC(C)C[C@H](NC(=O)[C@H](Cc1ccc(O)cc1)NC(=O)[C@H](CCCCN)NC(=O)[C@H](CO)NC(=O)[C@H](Cc1ccc(O)cc1)NC(=O)[C@H](CC(=O)O)NC(=O)[C@H](CO)NC(=O)[C@@H](NC(=O)[C@H](Cc1ccccc1)NC(=O)[C@@H](NC(=O)CNC(=O)[C@H](CCC(N)=O)NC(=O)[C@H](CO)NC(=O)[C@@H](N)Cc1c[nH]cn1)[C@@H](C)O)[C@@H](C)O)C(=O)N[C@@H](CC(=O)O)C(=O)N[C@@H](CO)C(=O)N[C@@H](CCCCN)C(=O)N[C@@H](CCCNC(=N)N)C(=O)N[C@@H](C)C(=O)N[C@@H](CCC(N)=O)C(=O)N[C@@H](CCC(=O)O)C(=O)N[C@@H](Cc1ccccc1)C(=O)N[C@H](C(=O)N[C@@H](CCC(N)=O)C(=O)N[C@@H](CCCCNC(=O)COCCOCCNC(=O)COCCOCCNC(=O)CC[C@H](NC(=O)CCCCCCCCCCCCCCCCC(=O)O)C(=O)O)C(=O)N[C@@H](CC(C)C)C(=O)N[C@@H](CC(C)C)C(=O)N[C@@H](CC(N)=O)C(=O)N[C@H](C(N)=O)[C@@H](C)O)C(C)C` [Example 44, N^ε25 ([2-[2-[2-[[2-[2-[2-[[(4S)-5-hydroxy-4-[(18-hydroxy-18-oxooctadecanoyl)amino]-5-oxopentanoyl]amino]ethoxy]ethoxy]acetyl]amino]ethoxy]ethoxy]acetyl]) [Lys^17, Glu^21, Lys^25 Leu^27] Glucagon peptide amide] (H-HSQGTFTSDYSKYLDSKRAQEFVQK([AEEA-AEEA-γGlu-C18 diacid])LLNT-NH2; N-terminus assumed): 10.92.
The value for `CC(C)C[C@H](NC(=O)[C@H](Cc1ccc(O)cc1)NC(=O)[C@H](CCCCN)NC(=O)[C@H](CO)NC(=O)[C@H](Cc1ccc(O)cc1)NC(=O)[C@H](CC(=O)O)NC(=O)[C@H](CO)NC(=O)[C@@H](NC(=O)[C@H](Cc1ccccc1)NC(=O)[C@@H](NC(=O)CNC(=O)[C@H](CCC(N)=O)NC(=O)[C@H](CO)NC(=O)[C@@H](N)Cc1c[nH]cn1)[C@@H](C)O)[C@@H](C)O)C(=O)N[C@@H](CC(=O)O)C(=O)N[C@@H](CO)C(=O)N[C@@H](CCCCN)C(=O)N[C@@H](CCCNC(=N)N)C(=O)N[C@@H](C)C(=O)N[C@@H](CCC(N)=O)C(=O)N[C@@H](CCC(=O)O)C(=O)N[C@@H](Cc1ccccc1)C(=O)N[C@H](C(=O)N[C@@H](CCC(N)=O)C(=O)N[C@@H](Cc1c[nH]c2ccccc12)C(=O)N[C@@H](CC(C)C)C(=O)N[C@@H](CCCCNC(=O)COCCOCCNC(=O)COCCOCCNC(=O)CC[C@H](NC(=O)CCCCCCCCCCCCCCCCC(=O)O)C(=O)O)C(=O)N[C@@H](CC(N)=O)C(=O)N[C@H](C(N)=O)[C@@H](C)O)C(C)C` [Example 45, N^ε27 ([2-[2-[2-[[2-[2-[2-[[(4S)-5-hydroxy-4-[(18-hydroxy-18-oxooctadecanoyl)amino]-5-oxopentanoyl]amino]ethoxy]ethoxy]acetyl]amino]ethoxy]ethoxy]acetyl]) [Lys^17, Glu^21, Lys^27] Glucagon peptide amide] (H-HSQGTFTSDYSKYLDSKRAQEFVQWLK([AEEA-AEEA-γGlu-C18 diacid])NT-NH2; N-terminus assumed) was 11.15.

Broadly, the pEC50 is −log10 of the EC50, conventionally taken in molar units. Read a low pEC50 as a large EC50.
